# Test results taken from patent US20140357688A1, “METHOD FOR INHIBITING EZH2 EXPRESSION IN BREAST CANCER CELLS” (Yung Shin Pharm. Ind. Co., Ltd., priority 2013, published 2014).
# Legend:
# Assay type in all cases: cell-based, human
# EED = assay: Western blot of PRC2 protein expression in MDA-MB-468 cells; conditions: 24 h
# Method: (§1) (A)(B) Cells were treated with indicated concentration of YC-1 for 24 h (A) or 3 μM of YC-1 for indicated time (B). Cells were harvested and performed with western blotting analysis. […] The levels of protein expression were quantitated and shown under blots. (C) Cells were transfected with EZH2 shRNA for 0, 1, 2, 3, and 4 days and collected for determination of cell viability (left) and protein expression (right). (D)(E) After 4 days of EZH2 knockdown, cells were incubated with 3 μM YC-1 for 4 h and detected cell viability (D) and protein contents (E). (F) Tumor specimens were isolated and protein was extracted for western blot analysis.
# (§2) Cells were lysed in PBS containing proteinase inhibitor and phosphatase inhibitors and sonication. Protein concentration was measured using the Bio-Rad protein assay kit (Bio-Rad Laboratories, Hercules, Calif., USA). Lysate protein was separated by electrophoresis of SDS-PAGE and transferred to Immobilon P membrane (EMD Millipore). The membranes were incubated with appropriate primary antibodies and horseradish peroxidase-conjugated secondary antibodies (EMD Millipore). The signaling was visualized using Chemiluminescence substrate kit (EMD Millipore) and collected by the Luminesence image analyzer, LAS4000 (Fuji Photo Film Co., Tokyo, Japan). The band intensities were analyzed and quantified by the Multi Gauge software (Fuji Photo Film).
# RbAp48 = assay: as above; conditions: 24 h
# Method: as §1, §2
# SUZ12 = assay: as above; conditions: 24 h
# Method: as §1, §2
# Ring1A = assay: Western blot of PRC1 components in MDA-MB-468 cells
# Method: as §1, §2
# Bmi1 = assay: as above
# Method: as §1, §2
# Ring1B = assay: as above
# Method: as §1, §2
# EZH2-c-Cbl-ERK = assay: Co-immunoprecipitation of c-Cbl and EZH2; conditions: 3 μM YC-1 with MG-132; after 1 h, maximum at 2 h
# Method: (A) c-Cbl knockdown MDA-MB-468 cells were treated with 3 μM YC-1 for 4 h. Cell were harvested for detection of protein expression. (B) Cells were treated with 3 μM YC-1 for indicated time. Cells were collected and c-Cbl phosphorylation was detected. (C) Cells were pretreated with MG-132 (3 μM) or NH4Cl (30 μM) for 1 h followed by 3 μM YC-1 induction for 6 h. (D) Cells were pretreated with MG-132 and followed by 3 μM YC-1 induction for indicated time. Cells were harvested and lysed for immunoprecipitation assay. The association between c-Cbl and EZH2 were determined by western blotting analysis and probed with anti-EZH2 or anti-c-Cbl antibody. Membranes were stripped and reprobed with anti-c-Cbl or anti-EZH2 antibody to check the input. (E) Cells were preincubated with or without PD98059 (10 μM) in the presence of MG-132 for 1 h prior to 2 h-treatment of 3 μM YC-1. Then cells were collected and lysate protein was subjected for the detection of the c-Cbl-EZH2 complexes.
# Cells were lysed with RIPA buffer (50 mM Tris-C1, pH 7.5, 1% Igepal CA-630, 150 mM NaCl, 1 mM EDTA, 1 mM Na3VO4, 1 mM NaF, 1 mM PMSF, 10 μg/ml of leupeptin, aprotinin, and pepstatin A) for 30 min at 4° C. One milligram of cell lysate was incubated with anti-EZH2 or anti-c-Cbl antibody and protein A-Sepharose beads, then gently rotated at 4° C. overnight. […]
# EZH2 Tyr487 = assay: Western blot of EZH2 phosphorylation; conditions: 3 μM YC-1
# Method: (A) MDA-MB-468 cells were incubated with 3 μM YC-1 for indicated time. Cells were harvested for the detection of phospho-Akt (Ser473), Akt, and PCNA. (B) Cells were pretreated with LY294002 (LY, 10 μM) for 1 h followed by 3 μM YC-1 induction for 6 h. (C) MDA-MB-468 cells were incubated with 3 μM YC-1 for indicated time. Cells were harvested for the detection of phospho-CDK1 (Thr161), CDK1, phospho-EZH2 ([…]), EZH2, and β-actin expression with western blot analysis. Levels of EZH2 phosphorylation were calculated by phospho-EZH2 normalized by total EZH2. (D) Cells were treated with YC-1 for 6 h in the absence or presence of roscovitine (Rosc, 20 μM). Cells were harvested and analyzed by western blotting for protein expression. (E) CDK1 knockdown of MDA-MB-468 cells were induced with 3 μM YC-1 for 4 h and followed by western blot analysis.
# Cells were lysed in PBS containing proteinase inhibitor and phosphatase inhibitors and sonication. Protein concentration was measured using the Bio-Rad protein assay kit (Bio-Rad Laboratories, Hercules, Calif., USA). Lysate protein was separated by electrophoresis of SDS-PAGE and transferred to Immobilon P membrane (EMD Millipore). […] The band intensities were analyzed and quantified by the Multi Gauge software (Fuji Photo Film).
# EZH2 [1] = assay: Western blot of EZH2 protein expression in MDA-MB-468 cells
# Method: as §1, with “Cells” for “(A)(B) Cells were treated with indicated concentration of YC-1 for 24 h (A) or 3 μM of YC-1 for indicated time (B). Cells”
# as §2
# EZH2 [2] = assay: EZH2 ubiquitination assay; conditions: 3 μM YC-1
# Method: (A) Cells were pretreated with cyclohexamide (30 μM) for 1 h and followed by induction with vehicle (DMSO) or YC-1 (3 μM) for indicated time. Cells were harvested for detection of protein expression. (B)(C) Cells were incubated with 3 μM YC-1 for 6 h in the presence of vehicle, 3 μM MG-132 or 30 μM NH4Cl. Cells were harvested for detection of protein expression (B) or cell viability assay (C). The levels of protein expression were quantitated and shown under blots. (D) After treatment of 3 μM YC-1 for indicated time, cells were harvested and lysed for immunoprecipitation and western blot analysis described in Materials and Methods.
# Cells were lysed with MLB buffer (25 mM HEPES, pH 7.5, 150 mM NaCl, 1% Igepal CA-630, 10 mM MgCl2, 1 mM EDTA, 2% glycerol, 1 mM Na3VO4, 1 mM NaF, 1 mM PMSF, 10 μg/ml of leupeptin, aprotinin, and pepstatin A). After sonication, cell lysates were centrifugated at 12,000×g for 10 min at 4° C. Supernatants were incubated with anti-EZH2 antibody (BD Biosciences) and protein A Sepharose beads (GE Health Care) overnight at 4° C. After washing with MLB buffer, precipitated proteins were boiled in 1× Laemmli sample buffer and then separated with SDS-PAGE. The ubiquitination levels of EZH2 were recognized by using anti-Ubiquitn monoclonal antibody.
structure (smiles),measurement,setting,value
"OCc1ccc(-c2nn(Cc3ccccc3)c3ccccc23)o1 [YC-1, 3-(5′-hydroxymethyl-2′-furyl)-1-benzyl indazole]",EED protein expression,EED,no effect
same,RbAp48 protein expression,RbAp48,effectively concentration-dependent suppression
same,SUZ12 protein expression,SUZ12,effectively concentration-dependent suppression
same,Ring1A protein,Ring1A,decreased
same,Bmi1 protein,Bmi1,decreased
same,Ring1B protein,Ring1B,decreased
same,complex formation of EZH2-c-Cbl-ERK,EZH2-c-Cbl-ERK,induced the complex formation
same,phosphorylation of EZH2 Tyr487,EZH2 Tyr487,no effect
same,inhibition of EZH2 protein,"EZH2 [1]; 3 μM YC-1, 2 h",about 18%
same,IC50,"EZH2 [1]; 24 h-incubation, MDA-MB-468, read-out: IC50, inhibition of EZH2 expression",540 ± 40 nM
same,ubiquitination of EZH2,EZH2 [2],time-dependently promoted the ubiquitination of EZH2
